The supplement of paper PMC5412046
Counter-ions that a name gives are not always drawn.

Legend:
[1] = system: SB.msgc-1; assay: area under the dose-response curve of % viability (trapezoidal, 11 doses) (% viability x log10 concentration); higher = less cytotoxic; details: SB.msgc-1 (sporadic gastric cancer)
Procedure, shortened: (§1)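 The measure is viability normalised to DMSO, given as trapezoidal area under the curve or at the highest concentration. Patient-derived gastric cancer cells, hereditary or sporadic, were exposed for 48 h to compound at 11 threefold-diluted concentrations, each compound's top concentration being recorded. Luminescence was read on a ViewLux after 30 min with CellTiter-Glo at room temperature.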

[2] = system: SB.mhdgc-1; assay: as above; details: SB.mhdgc-1 (hereditary c.1380delA CDH1 gastric cancer)
Procedure, shortened: as §1

[3] = system: SB.msgc-1; assay: viability at highest tested concentration (MAXR) relative to DMSO; higher = less cytotoxic; details: SB.msgc-1 (sporadic gastric cancer)
Procedure, shortened: as §1

[4] = system: SB.mhdgc-1; assay: as above; details: SB.mhdgc-1 (hereditary c.1380delA CDH1 gastric cancer)
Procedure, shortened: as §1

Row | Compound | area under the dose-response curve [1] | area under the dose-response curve [2] | viability [3] [%] | viability [4] [%]
1 | c1cc2c(cc1[C@H]1OC[C@H]3[C@@H]1CO[C@@H]3c1ccc3c(c1)OCO3)OCO2 [Sesamin] (top concentration 46.0829 µM) | 499 | 495 | 80.3 | 57.4
2 | CC(C)=CC[C@@H](O)C/1=C/C(=O)C2=C(O)C=CC(=C2C1=O)O [Shikonin] (top concentration 46.0829 µM) | 417 | 321 | 1.71 | 2.54
3 | CC(C)CC(N(C)C)C1(c2ccc(Cl)cc2)CCC1 (stereo unspecified) [Sibutramine hydrochloride] (top concentration 46.0829 µM) | 478 | 518 | 36.2 | 25.6
4 | CCCC1=N[N](C)C2=C1\N=C(/NC2=O)C3=CC(=CC=C3OCC)[S+]([O-])(=O)N4CCN(C)CC4 [Sildenafil citrate] (top concentration 46.0829 µM) | 369 | 463 | 29.5 | 15.2
5 | O=C(O)c1ccc2c(c1)nc(Nc1cccc(Cl)c1)c1ccncc12 [Silmitasertib] (top concentration 46.0829 µM) | 491 | 565 | 28.5 | 32.9
6 | C[C@@H](Cc1cc2c(c(C(N)=O)c1)N(CCCO)CC2)NCCOc1ccccc1OCC(F)(F)F [Silodosin] (top concentration 46.0829 µM) | 547 | 516 | 84.9 | 119
7 | Nc1ccc([S+](=O)([O-])Nc2ncccn2)cc1 [Silver sulfadiazine] (top concentration 46.0829 µM) | 511 | 485 | 80.3 | 54.2
8 | COc1cc([C@H]2Oc3cc([C@H]4Oc5cc(O)cc(O)c5C(=O)[C@@H]4O)ccc3O[C@@H]2CO)ccc1O [Silybin] (top concentration 46.0829 µM) | 511 | 511 | 31.3 | 65.9
9 | COC/1=C/[C@@H]2[C@@H]3CC4=C(C(=C(OC)C=C4)O)[C@]2(CCN3C)CC1=O [Sinomenine] (top concentration 46.0829 µM) | 380 | 417 | 37.2 | 24.9
10 | CN1CCN(c2ncc(-c3cc(Cl)cc(Cl)c3Cl)c(N)n2)CC1 [Sipatrigine] (top concentration 46.0829 µM) | 522 | 461 | 33.3 | 4.71
11 | CO[C@H]1C[C@@H]2CC[C@@H](C)[C@@](O)(O2)C(=O)C(=O)N2CCCC[C@H]2C(=O)O[C@H]([C@@H](C)C[C@@H]2CC[C@@H](O)[C@H](OC)C2)CC(=O)[C@H](C)/C=C(\C)[C@@H](O)[C@@H](OC)C(=O)[C@H](C)C[C@H](C)/C=C/C=C/C=C/1C [Sirolimus] (top concentration 46.0829 µM) | 470 | 370 | 76.1 | 67.2
12 | N[C@H]2CN(CC12CC1)c3c(F)cc4c(c3Cl)[N@@](C=C(C4=O)C(=O)O)C5C[C@H]5F (stereo partly specified) [Sitafloxacin hydrate] (top concentration 46.0829 µM) | 468 | 444 | 85.1 | 69.5
13 | N[C@@H](CC(=O)N1CCn2c(nnc2C(F)(F)F)C1)Cc1cc(F)c(F)cc1F [Sitagliptin] (top concentration 46.0829 µM) | 527 | 587 | 99.3 | 92.7
14 | CC(C)(C)C(=O)Oc1ccc([S+](=O)([O-])Nc2ccccc2C(=O)NCC(=O)O)cc1 [Sivelestat] (top concentration 46.0829 µM) | 505 | 563 | 110 | 134
15 | O=C([O-])C(O)Cc1ccc(O)c(O)c1 (stereo unspecified) [Sodium Danshensu] (top concentration 46.0829 µM) | 509 | 573 | 81.5 | 96.8
16 | Cc1onc(-c2ccccc2Cl)c1C(=O)N[C@@H]1C(=O)N2[C@@H]1SC(C)(C)[C@@H]2C(=O)[O-] [Sodium cloxacillin] (top concentration 46.0829 µM) | 606 | 513 | 121 | 97.4
17 | OC(COC1=C2C(=O)\C=C(/OC2=CC=C1)C([O-])=O)COC3=C4C(=O)\C=C(/OC4=CC=C3)C([O-])=O [Sodium cromoglycate] (top concentration 46.0829 µM) | 468 | 415 | 108 | 73.9
18 | CC(C)OC(=O)[C@H](C)N[P@](=O)(OC[C@H]1O[C@@H](N2\C=C/C(=O)NC2=O)[C@](C)(F)[C@@H]1O)OC3=CC=CC=C3 [Sofosbuvir] (top concentration 46.0829 µM) | 509 | 431 | 103 | 58.6
19 | CC(C)=CCC/C(C)=C/CC/C(C)=C/CC/C(C)=C/CC/C(C)=C/CC/C(C)=C/CC/C(C)=C/CC/C(C)=C/CC/C(C)=C/CO [Solanesol] (top concentration 46.0829 µM) | 564 | 611 | 119 | 133
20 | O=C1\C=C/C[C@@H]2[C@H]3CCCN4CCC[C@@H](CN12)[C@@H]34 [Sophocarpine] (top concentration 46.0829 µM) | 395 | 598 | 31.1 | 87
21 | CNC(=O)c1cc(Oc2ccc(NC(=O)Nc3ccc(Cl)c(C(F)(F)F)c3)cc2)ccn1 [Sorafenib] (top concentration 46.0829 µM) | 444 | 494 | 26.6 | 9.42
22 | CC(C)NCC(O)c1ccc(NS(C)(=O)=O)cc1 (stereo unspecified) [Sotalol] (top concentration 46.0829 µM) | 512 | 485 | 40.9 | 35.2

Row | Compound | area under the dose-response curve [1] | area under the dose-response curve [2] | viability [3] [%] | viability [4] [%]
23 | C[C@H]1CN(C[C@@H](C)N1)C2=C(F)C3=C(C(=C2F)N)C(=O)\C(=C/N3C4CC4)C(O)=O [Sparfloxacin] (top concentration 23.0415 µM) | 546 | 556 | 97.3 | 119
24 | Fc1ccc(CNc2ncnc3ccc(F)cc23)cc1 [Spautin-1] (top concentration 46.0829 µM) | 470 | 505 | 61.4 | 67.9
25 | CN[C@@H]1[C@H](O)[C@H](NC)[C@H]2O[C@@]3(O)C(=O)C[C@@H](C)O[C@H]3O[C@@H]2[C@H]1O [Spectinomycin hydrochloride] (top concentration 46.0829 µM) | 328 | 315 | 6.98 | 1.14
26 | NCCCCNCCCN [Spermidine] (top concentration 46.0829 µM) | 538 | 493 | 12.4 | 47.6
27 | C[C@]12Cc3cn[nH]c3C[C@@H]1CC[C@@H]1[C@@H]2CC[C@@]2(C)[C@H]1CC[C@]2(C)O [Stanozolol] (top concentration 46.0829 µM) | 510 | 444 | 55.5 | 44.9
28 | CO[C@@H]1C(N(C)C(=O)c2ccccc2)C[C@H]2O[C@]1(C)n1c3ccccc3c3c4c(c5c6ccccc6n2c5c31)C(=O)NC4=O (stereo partly specified) [Stauprimide] (top concentration 46.0829 µM) | 301 | 386 | 34.8 | 41.7
29 | Cc1cn([C@H]2C=C[C@@H](CO)O2)c(=O)[nH]c1=O [Stavudine] (top concentration 92.1659 µM) | 498 | 559 | 55.4 | 142
30 | CN1CCN(CCCN2c3ccccc3Sc3ccc(C(F)(F)F)cc32)CC1 [Stelazine  trifluoperzine] (top concentration 46.0829 µM) | 490 | 404 | 7.54 | 4.15
31 | CC(C)n1cnc2c(NCCc3ccc(O)cc3)nc(-c3csc4ccccc34)nc21 [StemRegenin 1] (top concentration 46.0829 µM) | 413 | 298 | 2.16 | -0.348
32 | CC[C@H](/C=C/[C@@H](C)[C@H]1CC[C@H]2[C@@H]3CC=C4C[C@@H](O)CC[C@]4(C)[C@H]3CC[C@]12C)C(C)C [Stigmasterol] (top concentration 23.0415 µM) | 443 | 449 | 32.2 | 59.3
33 | CN[C@H]1[C@H](O[C@@H]2[C@H](O[C@@H]3[C@@H](O)[C@@H](O)[C@@H](NC(=N)N)[C@@H](O)[C@H]3NC(=N)N)O[C@H](C)[C@@]2(O)C=O)O[C@@H](CO)[C@@H](O)[C@H]1O [Streptomycin sulfate] (top concentration 13.5607 µM) | 611 | 617 | 126 | 137
34 | CN(N=O)C(=O)N[C@H]1C(O)OC(CO)[C@@H](O)[C@@H]1O (stereo partly specified) [Streptozocin] (top concentration 46.0829 µM) | 440 | 352 | 88 | 72.5
35 | CC1(C)[C@H](C(=O)O)N2C(=O)C[C@H]2[S+]1(=O)[O-] [Sulbactam] (top concentration 46.0829 µM) | 562 | 535 | 91.3 | 80.7
36 | COc1ncnc(N[S+](=O)([O-])c2ccc(N)cc2)c1OC [Sulfadoxine] (top concentration 46.0829 µM) | 609 | 561 | 130 | 115
37 | Cc1noc(N[S+](=O)([O-])c2ccc(N)cc2)c1C [Sulfafurazole] (top concentration 46.0829 µM) | 516 | 561 | 109 | 126
38 | COc1cnc(N[S+](=O)([O-])c2ccc(N)cc2)nc1 [Sulfameter] (top concentration 46.0829 µM) | 512 | 509 | 43.3 | 65.7
39 | Cc1nnc(N[S+](=O)([O-])c2ccc(N)cc2)s1 [Sulfamethizole] (top concentration 46.0829 µM) | 489 | 394 | 3.84 | 38.9
40 | Nc1ccc([S+](=O)([O-])Nc2ccnn2-c2ccccc2)cc1 [Sulfaphenazole] (top concentration 46.0829 µM) | 478 | 501 | 98.2 | 94.5
41 | Nc1ccc([S+](=O)([O-])Nc2ccccn2)cc1 [Sulfapyridine] (top concentration 46.0829 µM) | 517 | 546 | 123 | 98.6
42 | O=C(O)c1cc(/N=N/c2ccc([S+](=O)([O-])Nc3ccccn3)cc2)ccc1O [Sulfasalazine] (top concentration 46.0829 µM) | 510 | 498 | 105 | 82.3
43 | CC1=C(CC(=O)O)c2cc(F)ccc2/C1=C\c1ccc([S+](C)[O-])cc1 (stereo unspecified) [Sulindac] (top concentration 46.0829 µM) | 452 | 472 | 46.5 | 35.4
44 | COc1cc(N[S+](=O)([O-])c2ccc(N)cc2)nc(OC)n1 [Sulphadimethoxine] (top concentration 46.0829 µM) | 585 | 490 | 111 | 100
